Several values for one entry are separate records, joined by “and”; a condition that tells them apart may be missing. Equal entries are not always repeated.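 96-well plates; 48 h exposure; 5 concentrations. Endpoints by linear interpolation between flanking doses. Not reached: highest tested concentration assigned. GI50 marks 50% less growth.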 Activity calls are given as the source filed them. No stated cut-off is given here; in the data, active = GI50 up to about 1.1 µM and inactive = higher.
Tests used:
Assay in all cases: NCI anticancer screen, dose series, 48 h
PC-3 = tested on: PC-3
M19-MEL = tested on: M19-MEL
DMS-114 = tested on: DMS-114
DLD-1 = tested on: DLD-1
OVCAR-3 = tested on: OVCAR-3
M14 = tested on: M14
XF498 = tested on: XF498
NCI/ADR-RES = tested on: NCI/ADR-RES
NCI-H522 = tested on: NCI-H522
SNB-78 = tested on: SNB-78
LXFL 529 = tested on: LXFL 529
HOP-92 = tested on: HOP-92
DMS-273 = tested on: DMS-273
LOX IMVI = tested on: LOX IMVI
TK-10 = tested on: TK-10
SN12C = tested on: SN12C
UACC-257 = tested on: UACC-257
HCT-15 = tested on: HCT-15
HOP-62 = tested on: HOP-62
HCC 2998 = tested on: HCC 2998
RPMI-8226 = tested on: RPMI-8226
CCRF-CEM = tested on: CCRF-CEM
SK-MEL-5 = tested on: SK-MEL-5
HCT-116 = tested on: HCT-116
CAKI-1 = tested on: CAKI-1
OVCAR-4 = tested on: OVCAR-4
SNB-75 = tested on: SNB-75
SR = tested on: SR
SF-268 = tested on: SF-268
786-0 = tested on: 786-0
ACHN = tested on: ACHN
A498 = tested on: A498
K562 = tested on: K562
HL-60 = tested on: HL-60
EKVX = tested on: EKVX
KM12 = tested on: KM12
KM-20L2 = tested on: KM-20L2
OVCAR-5 = tested on: OVCAR-5
UACC-62 = tested on: UACC-62
SK-OV-3 = tested on: SK-OV-3
SNB-19 = tested on: SNB-19
COLO 205 = tested on: COLO 205
Malme-3M = tested on: Malme-3M
NCI-H23 = tested on: NCI-H23
HT-29 = tested on: HT-29
RXF 393 = tested on: RXF 393
NCI-H460 = tested on: NCI-H460
MOLT-4 = tested on: MOLT-4
SW-620 = tested on: SW-620
OVCAR-8 = tested on: OVCAR-8
U-251 = tested on: U-251
SF-295 = tested on: SF-295
UO-31 = tested on: UO-31
IGROV-1 = tested on: IGROV-1
A549 = tested on: A549
SK-MEL-28 = tested on: SK-MEL-28
SK-MEL-2 = tested on: SK-MEL-2
SF-539 = tested on: SF-539
NCI-H226 = tested on: NCI-H226

With `CCC1(O)CC(OC2CC(N(C)C)C(OC3CC4OC5CC(=O)C(C)OC5OC4C(C)O3)C(C)O2)c2c(cc3c(c2O)C(=O)c2c(O)ccc(O)c2C3=O)C1C(=O)OC` (configuration not stated) the GI50 (PC-3) was 0.00315 µM (active), the GI50 (M19-MEL) was 0.00887 µM (active) and the GI50 (DMS-114) was 0.00575 µM (active). The GI50 (DLD-1) was 0.00792 µM (active), the GI50 (OVCAR-3) was > 10 nM (active) and 5.92 nM (active) and the GI50 (M14) was > 10 nM (active) and 5.62 nM (active). The GI50 (XF498) was 0.00828 µM (active), the GI50 (NCI/ADR-RES) was 0.00479 µM (active) and the GI50 (NCI-H522) was 0.00224 µM (active). For the same compound, the GI50 (SNB-78) was 0.0166 µM (active), the GI50 (LXFL 529) was > 0.01 µM (active) and the GI50 (HOP-92) was 0.00624 µM (active). The GI50 (DMS-273) was 0.00365 µM (active) and the GI50 (LOX IMVI) was 0.000953 µM (active).

With `O=C1Oc2cc3c(c4cccc1c24)OCN(c1ccccc1)C3` the GI50 (TK-10) was > 100 µM (inactive), the GI50 (SN12C) was > 100 µM (inactive) and the GI50 (UACC-257) was > 100 µM (inactive). The GI50 (HCT-15) was 79.1 µM, the GI50 (HOP-62) was > 100 µM (inactive) and the GI50 (M19-MEL) was 38.8 µM (inactive). For the same compound, the GI50 (DMS-114) was 38.1 µM (inactive), the GI50 (HCC 2998) was > 100 µM (inactive) and the GI50 (DLD-1) was > 100 µM (inactive). The GI50 (RPMI-8226) was 35.1 µM (inactive), the GI50 (CCRF-CEM) was 29.1 µM (inactive) and the GI50 (SK-MEL-5) was > 100 µM (inactive). For the same compound, the GI50 (OVCAR-3) was > 100 µM (inactive), the GI50 (HCT-116) was > 100 µM (inactive) and the GI50 (CAKI-1) was 78.3 µM (inactive). The GI50 (OVCAR-4) was > 100 µM (inactive), the GI50 (SNB-75) was > 100 µM (inactive) and the GI50 (SR) was 44.8 µM (inactive). For the same compound, the GI50 (SF-268) was > 100 µM (inactive), the GI50 (M14) was > 100 µM (inactive) and the GI50 (786-0) was > 100 µM (inactive). For the same compound, the GI50 (ACHN) was > 100 µM (inactive), the GI50 (A498) was > 100 µM (inactive) and the GI50 (K562) was 23.2 µM (inactive). The GI50 (HL-60) was 43.5 µM (inactive), the GI50 (EKVX) was > 100 µM (inactive) and the GI50 (KM12) was > 100 µM (inactive). The GI50 (KM-20L2) was > 100 µM (inactive), the GI50 (OVCAR-5) was > 100 µM (inactive) and the GI50 (UACC-62) was 36.5 µM (inactive). The GI50 (SK-OV-3) was > 100 µM (inactive), the GI50 (XF498) was > 100 µM (inactive) and the GI50 (SNB-19) was > 100 µM (inactive). The GI50 (COLO 205) was > 100 µM (inactive), the GI50 (Malme-3M) was > 100 µM (inactive) and the GI50 (NCI-H522) was 26.2 µM (inactive). The GI50 (NCI-H23) was > 100 µM (inactive), the GI50 (HT-29) was > 100 µM (inactive) and the GI50 (RXF 393) was > 100 µM (inactive). For the same compound, the GI50 (NCI-H460) was > 100 µM (inactive), the GI50 (MOLT-4) was > 100 µM (inactive) and the GI50 (SW-620) was 83.9 µM (inactive). For the same compound, the GI50 (OVCAR-8) was > 100 µM (inactive), the GI50 (U-251) was > 100 µM (inactive) and the GI50 (LXFL 529) was 38.6 µM (inactive). For the same compound, the GI50 (HOP-92) was 41.7 µM (inactive), the GI50 (SF-295) was > 100 µM (inactive) and the GI50 (UO-31) was > 100 µM (inactive). For the same compound, the GI50 (DMS-273) was > 100 µM (inactive), the GI50 (IGROV-1) was > 100 µM (inactive) and the GI50 (A549) was > 100 µM (inactive). The GI50 (LOX IMVI) was 43.7 µM (inactive), the GI50 (SK-MEL-28) was > 100 µM (inactive) and the GI50 (SK-MEL-2) was > 100 µM (inactive).

With `O=C(c1nc2ccccc2nc1O)C(O)c1ccccc1` (configuration not stated) the GI50 (TK-10) was > 100 µM (inactive), the GI50 (SN12C) was > 100 µM (inactive) and the GI50 (UACC-257) was > 100 µM (inactive). For the same compound, the GI50 (HCT-15) was 96.2 µM, the GI50 (HOP-62) was > 100 µM (inactive) and the GI50 (M19-MEL) was 90.8 µM (inactive). The GI50 (SF-539) was 44.1 µM (inactive), the GI50 (DMS-114) was 48.6 µM (inactive) and the GI50 (HCC 2998) was 53.7 µM (inactive). For the same compound, the GI50 (DLD-1) was > 100 µM (inactive), the GI50 (RPMI-8226) was 53.5 µM (inactive) and the GI50 (CCRF-CEM) was 32.7 µM (inactive). The GI50 (SK-MEL-5) was > 100 µM (inactive), the GI50 (OVCAR-3) was > 100 µM (inactive) and the GI50 (HCT-116) was > 100 µM (inactive). The GI50 (CAKI-1) was > 100 µM (inactive), the GI50 (OVCAR-4) was 95.3 µM (inactive) and the GI50 (SR) was 86.1 µM (inactive). The GI50 (SF-268) was 86.7 µM (inactive), the GI50 (M14) was > 100 µM (inactive) and the GI50 (786-0) was > 100 µM (inactive). For the same compound, the GI50 (ACHN) was 44.6 µM (inactive), the GI50 (A498) was 39.5 µM (inactive) and the GI50 (K562) was 40.3 µM (inactive). For the same compound, the GI50 (HL-60) was 61.7 µM (inactive), the GI50 (EKVX) was 64.6 µM (inactive) and the GI50 (KM12) was 54.6 µM (inactive). For the same compound, the GI50 (KM-20L2) was 46.5 µM (inactive), the GI50 (OVCAR-5) was > 100 µM (inactive) and the GI50 (UACC-62) was 72.4 µM (inactive). For the same compound, the GI50 (SK-OV-3) was > 100 µM (inactive), the GI50 (SNB-19) was > 100 µM (inactive) and the GI50 (COLO 205) was > 100 µM (inactive). For the same compound, the GI50 (Malme-3M) was > 100 µM (inactive), the GI50 (NCI-H522) was 22.2 µM (inactive) and the GI50 (NCI-H23) was > 100 µM (inactive). For the same compound, the GI50 (HT-29) was > 100 µM (inactive), the GI50 (NCI-H226) was 76.7 µM (inactive) and the GI50 (SNB-78) was > 100 µM (inactive). The GI50 (NCI-H460) was > 100 µM (inactive), the GI50 (MOLT-4) was 64.9 µM (inactive) and the GI50 (SW-620) was 86.9 µM (inactive). The GI50 (OVCAR-8) was > 100 µM (inactive), the GI50 (U-251) was 43.7 µM (inactive) and the GI50 (LXFL 529) was 50.2 µM (inactive). The GI50 (HOP-92) was 63.7 µM (inactive), the GI50 (SF-295) was > 100 µM (inactive) and the GI50 (UO-31) was 94.8 µM (inactive). The GI50 (DMS-273) was 60.3 µM (inactive), the GI50 (IGROV-1) was > 100 µM (inactive) and the GI50 (A549) was 70.3 µM (inactive). The GI50 (LOX IMVI) was 39.5 µM (inactive), the GI50 (SK-MEL-28) was 29.8 µM (inactive) and the GI50 (SK-MEL-2) was > 100 µM (inactive).

— ChEMBL document CHEMBL1201862, “PubChem BioAssay data set” (2004)
